Assay results as given in US6869940B2, “Malignant tumor metastasis inhibitors” (Chugai Seiyaku Kabushiki Kaisha, priority 1995, dated 2005).

System: Hara cells derived from human lung cancer
Test: Bone metastasis model: Hara cells transplanted into the heart of nude mice, preventive effect of OCT
Assay type: in vivo
Source text: Preventive effects of OCT on bone metastases were studied using a bone metastasis model prepared with Hara cells derived from human lung cancer.
A test of preventive effects of OCT on bone metastases of Hara cells was started on the 20th day after 5×10^5 Hara cells were transplanted into the heart of nude mice, at which time the body weight of the animals began to slightly decrease but neither rise in Ca nor clear bone metastasis image on soft X-rays was observed. On that day, the animals were grouped by body weight, and a vehicle (n=9) or 1 μg/kg of OCT (n=9) was orally administered to each animal 4 to 5 times per week for six weeks (29 times in total). At different instants during the administration period, the body weight and Ca level in blood were measured and soft X-ray photographs were taken.

[1] = after 15 doses on the 22nd day after starting the test, 1 μg/kg OCT orally, n=9
[2] = after 20 doses on the 29th day after starting the test, 1 μg/kg OCT orally, n=9
[3] = first day of the test, 1 μg/kg OCT orally, n=9

SMILES: C=C1/C(=C\C=C2/CCC[C@@]3(C)C2CC[C@@H]3[C@H](C)OCCC(C)(C)O)C[C@@H](O)C[C@@H]1O (stereo partly drawn) [OCT, 22-oxa-1α, 25-dihydroxyvitamin D3]
- effect on rise in Ca level in blood (1 μg/kg OCT orally vs vehicle group): tendency to suppress the rise in Ca level in blood
- death (1 μg/kg OCT orally, n=9, in the vehicle group four animals died by the 42nd day): no death was observed
- effect on body weight decrease (29th day, 1 μg/kg OCT orally vs vehicle group, p<0.05): significantly suppressed body weight decrease
- Ca level in blood [1]: 1.37 ± 0.04 mM
- body weight [1]: 24.51 ± 1.27 g
- Ca level in blood [2]: 1.34 ± 0.16 mM
- body weight [2]: 25.00 ± 1.20 g
- bone metastasis image on soft X-ray photographs (during the administration period (six weeks), 1 μg/kg OCT orally, n=9, vehicle group: four animals in total): no bone metastasis image was observed
- Ca level in blood [3]: 1.32 ± 0.04 mM
- body weight [3]: 23.61 ± 1.57 g
